The record followed here is ChEMBL document CHEMBL1128661, “Vasorelaxant activity of 2-fluoroalkyl-6-nitro-2H-1-benzopyran-4-carbothioamide and -carboxamide K+ channel openers” (Bioorg Med Chem Lett, 1995).

The species entered for assay [1] is Rattus norvegicus. Nature of the assay: Intrinsic vasorelaxant activity tested in rat aorta. In kind it is functional.
Assay [2] is filed under the species Rattus norvegicus. Nature of the assay: Negative logarithm of the molar concentration required to relax rat aorta precontracted with 30 mM KCI by 50% of IA. It is filed as functional, organism-based.

`CC1(C)Oc2ccc(C#N)cc2[C@@H](N2CCCC2=O)[C@@H]1O` [CROMAKALIM]: the Intrinsic activity in the assay filed under Rattus norvegicus [1] was determined as 74.7%. In the case of `CC(N/C(=N\C#N)Nc1ccncc1)C(C)(C)C` (configuration not stated) [PINACIDIL ANHYDROUS], the Intrinsic activity in the assay listed under Rattus norvegicus [1] was 91.9%. Broadly, the EC50 is the concentration at which the effect is half-maximal. A high value points to weaker potency. In the case of `N#CCC/N=C(/S)C1=CC(C(F)(F)F)(C(F)(F)F)Oc2ccc([N+](=O)[O-])cc21`, a half-maximal response in the assay filed under Rattus norvegicus [2] (EC50) required 0.437 nM. In addition, the Intrinsic activity in the assay listed under Rattus norvegicus [1] is on record as 74.8%. Turning to `CC1(C(F)(F)F)C=C(/C(S)=N\CCC#N)c2cc([N+](=O)[O-])ccc2O1` (configuration not stated), in the assay listed under Rattus norvegicus [2], the EC50 was 0.363 nM. This compound yielded an Intrinsic activity in the assay listed under Rattus norvegicus [1] of 69.7%. In turn, `CNC(=O)C1=CC(C(F)(F)F)(C(F)(F)F)Oc2ccc([N+](=O)[O-])cc21` had an EC50 in the assay filed under Rattus norvegicus [2] of 1.48 nM. The compound also displayed an Intrinsic activity in the assay filed under Rattus norvegicus [1] of 57.9%.

The compound `N#CCC/N=C(\S)C1=CC(CF)(CF)Oc2ccc([N+](=O)[O-])cc21` showed an EC50 in the assay filed under Rattus norvegicus [2] of 0.141 nM. The same compound had an Intrinsic activity in the assay listed under Rattus norvegicus [1] of 72.5%. With `CNC(=O)C1=CC(C)(C)Oc2ccc([N+](=O)[O-])cc21`, the Intrinsic activity in the assay filed under Rattus norvegicus [1] was determined as 61%. `N#CCCNC(=O)C1=CC(CF)(CF)Oc2ccc([N+](=O)[O-])cc21` had an EC50 in the assay listed under Rattus norvegicus [2] of 2.24 nM. The compound also showed an Intrinsic activity in the assay filed under Rattus norvegicus [1] of 72.3%. The matching figures for `C/N=C(/S)C1=CC(C(F)(F)F)(C(F)(F)F)Oc2ccc([N+](=O)[O-])cc21`: 0.631 nM and 68%.

With `C/N=C(/S)C1=CC(CF)(CF)Oc2ccc([N+](=O)[O-])cc21`, the EC50 in the assay filed under Rattus norvegicus [2] is 0.479 nM. The compound further returned an Intrinsic activity in the assay filed under Rattus norvegicus [1] of 74.5%. The compound `C/N=C(/S)C1=CC(C)(C)Oc2ccc([N+](=O)[O-])cc21` showed an Intrinsic activity in the assay listed under Rattus norvegicus [1] of 63.5%. As to `C/N=C(/S)C1=CC(C)(CF)Oc2ccc([N+](=O)[O-])cc21` (configuration not stated), the EC50 in the assay listed under Rattus norvegicus [2] was 1.62 nM. The Intrinsic activity in the assay filed under Rattus norvegicus [1] stood at 77.1%. In the assay listed under Rattus norvegicus [2], `CNC(=O)C1=CC(C)(CF)Oc2ccc([N+](=O)[O-])cc21` (configuration not stated) gave an EC50 of 8.91 nM. Further, in the assay listed under Rattus norvegicus [1], the Intrinsic activity was found to be 66%.

Compound `C/N=C(/S)C1=CC2(CCCC2)Oc2ccc([N+](=O)[O-])cc21` had an EC50 in the assay filed under Rattus norvegicus [2] of 0.0209 nM. Turning to `CC1(C)C=C(C(=O)NCCC#N)c2cc([N+](=O)[O-])ccc2O1`, the EC50 in the assay filed under Rattus norvegicus [2] is 2.82 nM. The compound also came in with an Intrinsic activity in the assay listed under Rattus norvegicus [1] of 73.1%. The compound `CNC(=O)C1=CC(C)(C(F)(F)F)Oc2ccc([N+](=O)[O-])cc21` (configuration not stated) gave an EC50 in the assay filed under Rattus norvegicus [2] of 2.69 nM. In the assay filed under Rattus norvegicus [1], this compound showed an Intrinsic activity of 61.7%. `CC1(C(F)(F)F)C=C(C(=O)NCCC#N)c2cc([N+](=O)[O-])ccc2O1` (configuration not stated) gave an EC50 in the assay filed under Rattus norvegicus [2] of 0.692 nM. This compound came in with an Intrinsic activity in the assay listed under Rattus norvegicus [1] of 70.6%. Compound `N#CCCNC(=O)C1=CC(C(F)(F)F)(C(F)(F)F)Oc2ccc([N+](=O)[O-])cc21` gave an EC50 in the assay filed under Rattus norvegicus [2] of 0.49 nM. Also, in the assay filed under Rattus norvegicus [1], the Intrinsic activity is 64.1%. With `CNC(=O)C1=CC(CF)(CF)Oc2ccc([N+](=O)[O-])cc21`, the EC50 in the assay filed under Rattus norvegicus [2] is 5.13 nM. Also, the Intrinsic activity in the assay listed under Rattus norvegicus [1] came to 70.7%. The matching figures for `CC1(C)C=C(/C(S)=N\CCC#N)c2cc([N+](=O)[O-])ccc2O1`: 0.372 nM and 78.5%. In the assay filed under Rattus norvegicus [2], `CC1(CF)C=C(/C(S)=N\CCC#N)c2cc([N+](=O)[O-])ccc2O1` (configuration not stated) showed an EC50 of 1.86 nM. The Intrinsic activity in the assay filed under Rattus norvegicus [1] was 59.6%.

In the assay listed under Rattus norvegicus [2], `CC1(CF)C=C(C(=O)NCCC#N)c2cc([N+](=O)[O-])ccc2O1` (configuration not stated) had an EC50 of 3.98 nM. Further, in the assay listed under Rattus norvegicus [1], the Intrinsic activity was 71%.

Compound `C/N=C(/S)C1=CC(C)(C(F)(F)F)Oc2ccc([N+](=O)[O-])cc21` (configuration not stated) showed a 50% effective concentration (EC50) in the assay listed under Rattus norvegicus [2] of 0.302 nM. This compound also yielded an Intrinsic activity in the assay listed under Rattus norvegicus [1] of 62.5%. In the assay listed under Rattus norvegicus [2], `C/N=C(/S)C1=CC2(CCC2)Oc2ccc([N+](=O)[O-])cc21` had an EC50 of 0.0251 nM.
